Structures can show the parent of a compound that is named as a salt.

The target in one test is T1, JH2 domain of human Tyk2 (Homo sapiens, UniProt P29597).
T1 construct: 10×His-tagged TYK2 JH2 domain (amino acid 575-876)
Kind of test: JH2 biochemical assay (TR-FRET probe displacement). The test is classed as binding. In a few lines:
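A probe-displacement TR-FRET readout: compounds, tested in 3-fold, 10-point dilutions starting at […], compete with 2 nM tracer for 2 nM His-tagged JH2 (residues 575-876) detected by 0.1 nM Tb-anti-His over 60 min. IC50 comes from 4-parameter fits of normalized 520/495 nm ratios.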
Background: In TR-FRET formats the signal depends on donor and acceptor labels being close together.

The subject of test [1] is Tyk2 kinase activity on STAT4. In words: pSTAT4 cell assay (MSD, NK92 cells). Format: cell-based. The settings on record: compounds 1 hr. In a few lines: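 Read-out: phospho-STAT in NK92 lysates, MSD format, anti-STAT4 antibodies. Cells were serum-starved, given compound for 1 hr (10 μM top, four-fold, 10 points) and IL2-stimulated (30 ng/mL, 15 min). Normalized percent activity vs log concentration, 4-parameter logistic fit gave IC50.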

T1 sequence (P29597 575-876): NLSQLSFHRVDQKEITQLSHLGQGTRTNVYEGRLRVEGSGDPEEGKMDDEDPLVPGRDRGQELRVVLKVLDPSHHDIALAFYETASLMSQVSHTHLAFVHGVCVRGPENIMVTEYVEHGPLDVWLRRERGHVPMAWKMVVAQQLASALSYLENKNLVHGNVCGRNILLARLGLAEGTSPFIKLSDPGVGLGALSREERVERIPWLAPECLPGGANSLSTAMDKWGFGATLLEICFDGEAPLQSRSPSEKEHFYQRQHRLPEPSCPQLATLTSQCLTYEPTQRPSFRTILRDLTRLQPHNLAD

Take `CC(=O)Nc1cc2c(cn1)C1(CC1)CN2c1cc(C)nc(-c2cnn(CC3CC3)c2)n1` [Example 253, N-(1′-(2-(1-(cyclopropylmethyl)-1H-pyrazol-4-yl)-6-methylpyrimidin-4-yl)-1′,2′-dihydrospiro[cyclopropane-1,3′-pyrrolo[3,2-c]pyridin]-6′-yl)acetamide trifluoroacetate]: the IC50 (commonly the concentration that inhibits the measured activity by half) is 10 to 100 nM on JH2 domain of human Tyk2 (JH2 biochemical assay) and at least 1000 nM in test [1] (stimulated 15 minutes).

Consider `CC(=O)Nc1cc2c(cn1)C1(CC1)CN2c1cc(NC2CC2)nc(C(C)(F)F)n1` [Example 284, N-(1′-(6-(cyclopropylamino)-2-(1,1-difluoroethyl)pyrimidin-4-yl)-1′,2′-dihydrospiro[cyclopropane-1,3′-pyrrolo[3,2-c]pyridin]-6′-yl)acetamide trifluoroacetate], for which the 50% inhibitory concentration (IC50) at JH2 domain of human Tyk2 (JH2 biochemical assay) was at most 10 nM; in test [1] (stimulated 15 minutes), 10 to 100 nM.

`CC(=O)Nc1cc2c(cn1)C1(CC1)CN2c1cc(C)cc(N2CCNC(CCO)C2)n1` (stereo not drawn) [Example 212, N-(1′-(6-(3-(2-hydroxyethyl)piperazin-1-yl)-4-methylpyridin-2-yl)-1′,2′-dihydrospiro[cyclopropane-1,3′-pyrrolo[3,2-c]pyridin]-6′-yl)acetamide trifluoroacetate]: the half-maximal inhibitory concentration (IC50) was 100 to 1000 nM on JH2 domain of human Tyk2 (JH2 biochemical assay) and at least 1000 nM in test [1] (stimulated 15 minutes).

With `CCO/C=C\c1cc(N2CC3(CC3)c3cnc(NC(C)=O)cc32)nc(C(C)(F)F)n1` [Example 329, (Z)-N-(1′-(2-(1,1-difluoroethyl)-6-(2-ethoxyvinyl)pyrimidin-4-yl)-1′,2′-dihydrospiro[cyclopropane-1,3′-pyrrolo[3,2-c]pyridin]-6′-yl)acetamide], the values for the 50% inhibitory concentration (IC50) (at JH2 domain of human Tyk2 (JH2 biochemical assay); in test [1] (stimulated 15 minutes)) were at most 10 nM and 10 to 100 nM, respectively.

With `CC(=O)Nc1cc2c(cn1)C1(CC1)CN2c1cc(C)cc(OC2CCC2)n1` [Example 340, N-(1′-(6-cyclobutoxy-4-methylpyridin-2-yl)-1′,2′-dihydrospiro[cyclopropane-1,3′-pyrrolo[3,2-c]pyridin]-6′-yl)acetamide trifluroacetate], the half-maximal inhibitory concentration (IC50) is 10 to 100 nM on JH2 domain of human Tyk2 (JH2 biochemical assay) and at least 1000 nM in test [1] (stimulated 15 minutes).

Consider `COC1CC(c2cc(N3CC4(CC4)c4cnc(NC(C)=O)cc43)nc(C(C)(F)F)n2)C1` (stereo not drawn) [Example 23, N-(1′-(2-(1,1-difluoroethyl)-6-(3-methoxycyclobutyl)pyrimidin-4-yl)-1′,2′-dihydrospiro[cyclopropane-1,3′-pyrrolo[3,2-c]pyridin]-6′-yl)acetamid], for which the figures for the half-maximal inhibitory concentration (IC50) (at JH2 domain of human Tyk2 (JH2 biochemical assay); in test [1] (stimulated 15 minutes)) were at most 10 nM and 10 to 100 nM, respectively.

With `CC(=O)Nc1cc2c(cn1)C1(CC1)CN2c1cc(C)nc(OCC2CC2)n1` [Example 369, N-(1′-(2-(cyclopropylmethoxy)-6-methylpyrimidin-4-yl)-1′,2′-dihydrospiro[cyclopropane-1,3′-pyrrolo[3,2-c]pyridin]-6′-yl)acetamide], the half-inhibitory concentration (IC50) is 100 to 1000 nM at JH2 domain of human Tyk2 (JH2 biochemical assay) and at least 1000 nM in test [1] (stimulated 15 minutes).

Consider `COCCC1(C#N)CN(c2nc(C)cc(N3CC4(CC4)c4cnc(NC(C)=O)cc43)n2)C1` [Example 220, N-(1′-(2-(3-cyano-3-(2-methoxyethyl)azetidin-1-yl)-6-methylpyrimidin-4-yl)-1′,2′-dihydrospiro[cyclopropane-1,3′-pyrrolo[3,2-c]pyridin]-6′-yl)acetamide], for which the IC50 on JH2 domain of human Tyk2 (JH2 biochemical assay) was 10 to 100 nM; in test [1] (stimulated 15 minutes), at least 1000 nM.

In the case of `CC(=O)Nc1cc2c(cn1)C1(CC1)CN2c1cc(C)cc(N2CCNCC2)n1` [Example 211, N-(1′-(4-methyl-6-(piperazin-1-yl)pyridin-2-yl)-1′,2′-dihydrospiro[cyclopropane-1,3′-pyrrolo[3,2-c]pyridin]-6′-yl)acetamide trifluoroacetate], the concentration for half-maximal inhibition (IC50) was at most 10 nM at JH2 domain of human Tyk2 (JH2 biochemical assay) and at least 1000 nM in test [1] (stimulated 15 minutes).

Consider `CC(=O)Nc1cc2c(cn1)C1(CC1)CN2c1cc(C2CCC2)nc(C(C)(F)F)n1` [Example 24, N-(1′-(6-cyclobutyl-2-(1,1-difluoroethyl)pyrimidin-4-yl)-1′,2′-dihydrospiro[cyclopropane-1,3'-pyrrolo[3,2-c]pyridin]-6'-yl)acetamide], for which the IC50 at JH2 domain of human Tyk2 (JH2 biochemical assay) was at most 10 nM; in test [1] (stimulated 15 minutes), 10 to 100 nM.

Regarding `CNCc1cc(N2CC3(CC3)c3cnc(NC(C)=O)cc32)nc(C(C)(F)F)n1` [Example 298, N-(1′-(2-(1,1-difluoroethyl)-6-((methylamino)methyl)pyrimidin-4-yl)-1′,2′-dihydrospiro[cyclopropane-1,3′-pyrrolo[3,2-c]pyridin]-6′-yl)acetamide], the figures for the IC50 (on JH2 domain of human Tyk2 (JH2 biochemical assay); in test [1] (stimulated 15 minutes)) were 10 to 100 nM and at least 1000 nM, respectively.

In the case of `CC(=O)Nc1cc2c(cn1)C1(CC1)CN2c1cc(N2CCC2)nc(C(C)(F)F)n1` [Example 51, N-(1′-(6-(azetidin-1-yl)-2-(1,1-difluoroethyl)pyrimidin-4-yl)-1′,2′-dihydrospiro[cyclopropane-1,3′-pyrrolo[3,2-c]pyridin]-6′-yl)acetamide], the IC50 on JH2 domain of human Tyk2 (JH2 biochemical assay) is at most 10 nM; in test [1] (stimulated 15 minutes) it was 100 to 1000 nM.

For `CC(=O)Nc1cc2c(cn1)C1(CC1)CN2c1cc(C)cc(OC2CC(C#N)C2)n1` (stereo not drawn) [Example 344, N-(1′-(6-(3-cyanocyclobutoxy)-4-methylpyridin-2-yl)-1′,2′-dihydrospiro[cyclopropane-1,3′-pyrrolo[3,2-c]pyridin]-6′-yl)acetamide trifluoroacetate], the 50% inhibitory concentration (IC50) on JH2 domain of human Tyk2 (JH2 biochemical assay) was 100 to 1000 nM; in test [1] (stimulated 15 minutes), at least 1000 nM.

Regarding `COCCCc1cc(N2CC3(CC3)c3cnc(NC(C)=O)cc32)nc(C(C)(F)F)n1` [Example 326, N-(1′-(2-(1,1-difluoroethyl)-6-(3-methoxypropyl)pyrimidin-4-yl)-1′,2′-dihydrospiro[cyclopropane-1,3′-pyrrolo[3,2-c]pyridin]-6′-yl)acetamide], the IC50 is at most 10 nM on JH2 domain of human Tyk2 (JH2 biochemical assay) and 10 to 100 nM in test [1] (stimulated 15 minutes).

Consider `CC(=O)Nc1cc2c(cn1)C1(CC1)CN2c1cc(C)nc(C2CCN(C(C)=O)CC2)n1` [Example 120, N-(1′-(2-(1-acetylpiperidin-4-yl)-6-methylpyrimidin-4-yl)-1′,2′-dihydrospiro[cyclopropane-1,3′-pyrrolo[3,2-c]pyridin]-6′-yl)acetamide], for which the IC50 on JH2 domain of human Tyk2 (JH2 biochemical assay) was 100 to 1000 nM; in test [1] (stimulated 15 minutes), at least 1000 nM.

Take `CCS(=O)(=O)C1CN(c2cc(C)cc(N3CC4(CC4)c4cnc(NC(C)=O)cc43)n2)C1` [Example 204, N-(1′-(6-(3-(ethylsulfonyl)azetidin-1-yl)-4-methylpyridin-2-yl)-1′,2′-dihydrospiro[cyclopropane-1,3′-pyrrolo[3,2-c]pyridin]-6′-yl)acetamide]: the 50% inhibitory concentration (IC50) at JH2 domain of human Tyk2 (JH2 biochemical assay) is 100 to 1000 nM; in test [1] (stimulated 15 minutes), at least 1000 nM.

Take `COC1(c2nc(C)cc(N3CC4(CC4)c4cnc(NC(C)=O)cc43)n2)CCC1` [Example 104, N-(1′-(2-(1-methoxycyclobutyl)-6-methylpyrimidin-4-yl)-1′,2′-dihydrospiro[cyclopropane-1,3′-pyrrolo[3,2-c]pyridin]-6′-yl)acetamide]: the figures for the IC50 (on JH2 domain of human Tyk2 (JH2 biochemical assay); in test [1] (stimulated 15 minutes)) were at most 10 nM and 100 to 1000 nM, respectively.

As to `CC(=O)Nc1cc2c(cn1)C1(CC1)CN2c1cc(CCC(C)(C)O)nc(C(C)(F)F)n1` [Example 327, N-(1′-(2-(1,1-difluoroethyl)-6-(3-hydroxy-3-methylbutyl)pyrimidin-4-yl)-1′,2′-dihydrospiro[cyclopropane-1,3′-pyrrolo[3,2-c]pyridin]-6′-yl)acetamide], the IC50 on JH2 domain of human Tyk2 (JH2 biochemical assay) is at most 10 nM; in test [1] (stimulated 15 minutes), 10 to 100 nM.

Regarding `CC(=O)Nc1cc2c(cn1)C1(CC1)CN2c1cc(C)cc(N(C)C)n1` [Example 190, N-(1′-(6-(dimethylamino)-4-methylpyridin-2-yl)-1′,2′-dihydrospiro[cyclopropane-1,3′-pyrrolo[3,2-c]pyridin]-6′-yl)acetamide], the IC50 was 10 to 100 nM on JH2 domain of human Tyk2 (JH2 biochemical assay) and at least 1000 nM in test [1] (stimulated 15 minutes).

On to `CC(=O)Nc1cc2c(cn1)C1(CC1)CN2c1cc(C)cc(N2CCC(F)(F)C2)n1` [Example 184, N-(1′-(6-(3,3-difluoropyrrolidin-1-yl)-4-methylpyridin-2-yl)-1′,2′-dihydrospiro[cyclopropane-1,3′-pyrrolo[3,2-c]pyridin]-6′-yl)acetamide], for which the concentration for half-maximal inhibition (IC50) at JH2 domain of human Tyk2 (JH2 biochemical assay) lay within 10 to 100 nM; in test [1] (stimulated 15 minutes) it was 100 to 1000 nM.

For the molecule `CC(=O)Nc1cc2c(cn1)C1(CC1)CN2c1cc(-c2cnn(CC3CC3)c2)nc(C(C)(F)F)n1` [Example 389, N-(1′-(6-(1-(cyclopropylmethyl)-1H-pyrazol-4-yl)-2-(1,1-difluoroethyl)pyrimidin-4-yl)-1′,2′-dihydrospiro[cyclopropane-1,3′-pyrrolo[3,2-c]pyridin]-6′-yl)acetamide], the concentration for half-maximal inhibition (IC50) at JH2 domain of human Tyk2 (TR-FRET probe displacement, JH2 domain of human Tyk2) was at most 10 nM; in test [1] (then stimulated 15 minutes) it was at most 10 nM.

As for `CC(=O)Nc1cc2c(cn1)C1(CC1)CN2c1cc(C)cc(OC2CC(F)C2)n1` (stereo not drawn) [Example 346, N-(1′-(6-(3-fluorocyclobutoxy)-4-methylpyridin-2-yl)-1′,2′-dihydrospiro[cyclopropane-1,3′-pyrrolo[3,2-c]pyridin]-6′-yl)acetamide trifluoroacetate], the 50% inhibitory concentration (IC50) on JH2 domain of human Tyk2 (JH2 biochemical assay) was 100 to 1000 nM; in test [1] (stimulated 15 minutes), at least 1000 nM.

As for `CC(=O)Nc1cc2c(cn1)C1(CC1)CN2c1cc(NC2CCSC2)nc(C(C)(F)F)n1` (stereo not drawn) [Example 181, N-(1′-(2-(1,1-difluoroethyl)-6-((tetrahydrothiophen-3-yl)amino)pyrimidin-4-yl)-1′,2′-dihydrospiro[cyclopropane-1,3′-pyrrolo[3,2-c]pyridin]-6′-yl)acetamide], the figures for the IC50 (at JH2 domain of human Tyk2 (JH2 biochemical assay); in test [1] (stimulated 15 minutes)) were at most 10 nM and 10 to 100 nM, respectively.

As to `CC(=O)Nc1cc2c(cn1)C1(CC1)CN2c1cc(C)nc(C23COC(C)(C2)C3)n1` [Example 318, N-(1′-(6-methyl-2-(1-methyl-2-oxabicyclo[2.1.1]hexan-4-yl)pyrimidin-4-yl)-1′,2′-dihydrospiro[cyclopropane-1,3′-pyrrolo[3,2-c]pyridin]-6′-yl)acetamide], the half-inhibitory concentration (IC50) is 10 to 100 nM on JH2 domain of human Tyk2 (JH2 biochemical assay) and at least 1000 nM in test [1] (stimulated 15 minutes).

Values taken from patent US20260258032A1, “TYROSINE KINASE 2 INHIBITORS AND USES THEREOF” (BIOGEN MA INC., priority 2022, published 2026).
